Drawing on US11173145B2, “Compounds useful as inhibitors of indoleamine 2,3-dioxygenase and/or tryptophan dioxygenase” (Board of Regents, The University of Texas System, priority 2017, dated 2021), this text covers IC50 for 22 molecules.

The test concerns the target T1, IDO1 (Homo sapiens, UniProt P14902).
T1 construct: endogenous in cells; host or cells: HeLa cells (ATCC), IFNgamma-induced
As to the kind of experiment: IDO1 cell-based assay (HeLa cells, IFNgamma-induced, N-formylkynurenine/L-tryptophan by RFMS). The settings on record: 10 ng/mL IFNgamma, 24 hours. The essentials: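 HeLa cells stimulated with 10 ng/mL IFNgamma and exposed to compound (0.5% DMSO final) for 24 h at 37 °C. Conditioned media deproteinized, then N-formylkynurenine and L-tryptophan quantified by RapidFire MS with deuterated tryptophan internal standard; IC50 by curve fitting. Viability checked by CellTiter-Glo.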

T1 sequence (P14902 whole entry): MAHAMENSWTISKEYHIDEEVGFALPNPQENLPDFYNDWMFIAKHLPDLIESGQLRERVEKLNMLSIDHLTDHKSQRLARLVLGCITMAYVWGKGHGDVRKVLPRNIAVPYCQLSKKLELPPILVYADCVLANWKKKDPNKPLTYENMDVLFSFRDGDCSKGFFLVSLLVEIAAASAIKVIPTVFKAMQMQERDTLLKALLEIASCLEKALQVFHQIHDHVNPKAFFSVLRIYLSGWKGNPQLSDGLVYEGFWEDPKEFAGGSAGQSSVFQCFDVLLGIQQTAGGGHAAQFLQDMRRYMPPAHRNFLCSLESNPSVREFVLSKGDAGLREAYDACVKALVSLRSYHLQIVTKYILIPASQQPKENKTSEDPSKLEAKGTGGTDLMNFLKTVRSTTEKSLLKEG

As for `CCC(NC(=O)c1ccc(Cl)cc1)[C@H]1[C@@H]2C[C@@H](Nc3ncnc4ccc(F)cc34)C[C@@H]21` (stereo partly drawn) [Compound 123, 4-chloro-N-(1-((1R,3s,5S,6r)-3-((6-fluoroquinazolin-4-yl)amino)bicyclo[3.1.0]hexan-6-yl)propyl)benzamide], the IC50 – broadly, the concentration at which inhibition is half-maximal – was under 0.2 µM. With `COc1ccc(C(=O)NC(C)[C@H]2[C@@H]3C[C@@H](Oc4ncnc5cc(F)ccc45)C[C@@H]32)cn1` (stereo partly drawn) [Compound 124, N-(1-((1R,3s,5S,6r)-3-((7-fluoroquinazolin-4-yl)oxy)bicyclo[3.1.0]hexan-6-yl)ethyl)-6-methoxynicotinamide], the IC50 is under 0.2 µM.

On to `CCC(NC(=O)c1ccc(Cl)cc1)[C@H]1[C@@H]2C[C@H](Oc3ccc4nccc(Cl)c4c3)C[C@@H]21` (stereo partly drawn) [Compound 127, 4-chloro-N-(1-((1R,3r,5S,6r)-3-((4-chloroquinolin-6-yl)oxy)bicyclo[3.1.0]hexan-6-yl)propyl)benzamide], for which the IC50 is under 0.2 µM.

`COc1ccc(C(=O)NC(C)[C@H]2[C@@H]3C[C@@H](O)C[C@@H]32)cn1` (stereo partly drawn) [Compound 128, N-(1-((1R,3s,5S,6r)-3-hydroxybicyclo[3.1.0]hexan-6-yl)ethyl)-6-methoxynicotinamide] had an IC50 of over 5 µM. Take `CC(NC(=O)c1ccc(C#N)cc1)[C@H]1[C@@H]2C[C@@H](n3cc(C4CC4)nn3)C[C@@H]21` (stereo partly drawn) [Compound 129, 4-cyano-N-(1-((1R,3s,5S,6r)-3-(4-cyclopropyl-1H-1,2,3-triazol-1-yl)bicyclo[3.1.0]hexan-6-yl)ethyl)benzamide]: the IC50 is 0.2 to 2 µM. Next, `CCOC(=O)CC(NC(=O)c1ccc(Cl)cc1)[C@H]1[C@@H]2C[C@@H](Oc3ncnc4ccc(F)cc34)C[C@@H]21` (stereo partly drawn) [Compound 134, ethyl 3-(4-chlorobenzamido)-3-((1R,3s,5S,6r)-3-((6-fluoroquinazolin-4-yl)oxy)bicyclo[3.1.0]hexan-6-yl)propanoate]: under 0.2 µM; `CC(NC(=O)c1ccc(C#N)cc1)[C@H]1[C@@H]2C[C@@H](Oc3cnnc4ccccc34)C[C@@H]21` (stereo partly drawn) [Compound 135, N-(1-((1R,3s,5S,6r)-3-(cinnolin-4-yloxy)bicyclo[3.1.0]hexan-6-yl)ethyl)-4-cyanobenzamide]: 0.2 to 2 µM. In the case of `CC(NC(=O)c1ccc(C#N)cc1)[C@H]1[C@@H]2C[C@@H](n3ncc(=O)c4ccccc43)C[C@@H]21` (stereo partly drawn) [Compound 136, 4-cyano-N-(1-((1R,3s,5S,6r)-3-(4-oxocinnolin-1(4H)-yl)bicyclo[3.1.0]hexan-6-yl)ethyl)benzamide] it was 0.2 to 2 µM; in that of `O=C(NC(CCO)[C@H]1[C@@H]2C[C@@H](Oc3ncnc4ccc(F)cc34)C[C@@H]21)c1ccc(Cl)cc1` (stereo partly drawn) [Compound 137, 4-chloro-N-(1-((1R,3s, 5S, 6r)-3-((6-fluoroquinazolin-4-yl)oxy)bicyclo[3.1.0]hexan-6-yl)-3-hydroxypropyl)benzamide], 2 to 5 µM; in that of `CCC(NC(=O)c1ccc(Cl)cc1)[C@H]1[C@@H]2C[C@@H](Oc3cnnc4ccccc34)C[C@@H]21` (stereo partly drawn) [Compound 138, 4-chloro-N-(1-((1R,3r,5S,6r)-3-(cinnolin-4-yloxy)bicyclo[3.1.0]hexan-6-yl)propyl)benzamide], under 0.2 µM. Take `O=C(NC(CCO)[C@H]1[C@@H]2C[C@@H](Oc3cnnc4ccccc34)C[C@@H]21)c1ccc(Cl)cc1` (stereo partly drawn) [Compound 139, 4-chloro-N-(1-((1R,3s,5S,6r)-3-(cinnolin-4-yloxy)bicyclo[3.1.0]hexan-6-yl)-3-hydroxypropyl)benzamide]: the IC50 was in the range of 0.2 to 2 µM. In the case of `O=C(NC(CCO)[C@H]1[C@@H]2C[C@@H](n3ncc(=O)c4ccccc43)C[C@@H]21)c1ccc(Cl)cc1` (stereo partly drawn) [Compound 140, 4-chloro-N-(3-hydroxy-1-((1R,3s, 5S, 6r)-3-(4-oxocinnolin-1(4H)-yl)bicyclo[3.1.0]hexan-6-yl)propyl)benzamide] it was under 0.2 µM; in that of `CCC(NC(=O)c1ccc(Cl)cc1)[C@H]1[C@@H]2C[C@@H](n3cc(C(C)(C)O)nn3)C[C@@H]21` (stereo partly drawn) [Compound 141, 4-chloro-N-((R)-1-((1R,3S,5S,6r)-3-(4-(2-hydroxypropan-2-yl)-1H-1,2,3-triazol-1-yl)bicyclo[3.1.0]hexan-6-yl)propyl)benzamide], 0.2 to 2 µM. In the case of `CC[C@@H](NC(=O)c1ccc(Cl)cc1)[C@H]1[C@@H]2C[C@@H](n3cc(C(C)(C)O)nn3)C[C@@H]21` [Compound 142, 4-chloro-N-((S)-1-((1R,3R,5S,6r)-3-(4-(2-hydroxypropan-2-yl)-1H-1,2,3-triazol-1-yl)bicyclo[3.1.0]hexan-6-yl)propyl)benzamide] it was over 5 µM; in that of `CC(NC(=O)c1ccc(C#N)cc1)[C@H]1[C@@H]2C[C@@H](NC(=O)c3ccccn3)C[C@@H]21` (stereo partly drawn) [Compound 143, N-((1R,3s,5S,6r)-6-(1-(4-cyanobenzamido)ethyl)bicyclo[3.1.0]hexan-3-yl)picolinamide], under 0.2 µM; in that of `CCC(NC(=O)c1ccc(Cl)cc1)[C@H]1[C@@H]2C[C@@H](n3cc(CO)nn3)C[C@@H]21` (stereo partly drawn) [Compound 146, 4-chloro-N-(1-((1R,3s,5S,6r)-3-(4-(hydroxymethyl)-1H-1,2,3-triazol-1-yl)bicyclo[3.1.0]hexan-6-yl)propyl)benzamide], 0.2 to 2 µM. Next, `C=C(C)c1cn([C@@H]2C[C@@H]3[C@H](C2)[C@H]3C(CC)NC(=O)c2ccc(Cl)cc2)nn1` (stereo partly drawn) [Compound 147, 4-chloro-N-(1-((1R,3s,5S,6r)-3-(4-(prop-1-en-2-yl)-1H-1,2,3-triazol-1-yl)bicyclo[3.1.0]hexan-6-yl)propyl)benzamide]: under 0.2 µM. For the molecule `O=C(O)CC(NC(=O)c1ccc(Cl)cc1)[C@H]1[C@@H]2C[C@@H](Oc3ncnc4ccc(F)cc34)C[C@@H]21` (stereo partly drawn) [Compound 148, 3-(4-chlorobenzamido)-3-((1R,3s,5S,6r)-3-((6-fluoroquinazolin-4-yl)oxy)bicyclo[3.1.0]hexan-6-yl)propanoic acid], the IC50 was over 5 µM.

As to `CCC(NC(=O)c1ccc(Cl)cc1)[C@H]1[C@@H]2C[C@@H](NC(=O)c3ccncn3)C[C@@H]21` (stereo partly drawn) [Compound 149, N-((1R,3s,5S,6r)-6-(1-(4-chlorobenzamido)propyl)bicyclo[3.1.0]hexan-3-yl)pyrimidine-4-carboxamide], the IC50 was under 0.2 µM.

Regarding `CCC(NC(=O)c1ccc(Cl)cc1)[C@H]1[C@@H]2C[C@@H](NC(=O)c3cccnn3)C[C@@H]21` (stereo partly drawn) [Compound 151, N-((1R,3s,5S,6r)-6-(1-(4-chlorobenzamido)propyl)bicyclo[3.1.0]hexan-3-yl)pyridazine-3-carboxamide], the IC50 is under 0.2 µM.

Molecule `CCC(NC(=O)c1ccc(Cl)cc1)[C@H]1[C@@H]2C[C@@H](NC(=O)c3cnccn3)C[C@@H]21` (stereo partly drawn) [Compound 152, N-((1R,3s,5S,6r)-6-(1-(4-chlorobenzamido)propyl)bicyclo[3.1.0]hexan-3-yl)pyrazine-2-carboxamide] came in with an IC50 of under 0.2 µM. Next, `CCC(NC(=O)c1ccc(Cl)cc1)[C@H]1[C@@H]2C[C@@H](n3nncc3C(C)(C)O)C[C@@H]21` (stereo partly drawn) [Compound 154, 4-chloro-N-(1-((1R,3s,5S,6r)-3-(5-(2-hydroxypropan-2-yl)-1H-1,2,3-triazol-1-yl)bicyclo[3.1.0]hexan-6-yl)propyl)benzamide]: under 0.2 µM.
